Reference: ChEMBL document CHEMBL2321759, “A new target for an old drug: identifying mitoxantrone as a nanomolar inhibitor of PIM1 kinase via kinome-wide selectivity modeling” (J Med Chem, 2013)
Structures can show the parent of a compound that is named as a salt. Activity calls are given as the source filed them. The calls are words filed in the database; no cut-off is given here.

Key:
[1] = target: Platelet-derived growth factor receptor beta (Mus musculus, UniProt P05622); test: Inhibition of mouse PDGFRbeta expressed in SF9 insect cells by TR-FRET assay
Chain of Platelet-derived growth factor receptor beta (P05622 whole entry): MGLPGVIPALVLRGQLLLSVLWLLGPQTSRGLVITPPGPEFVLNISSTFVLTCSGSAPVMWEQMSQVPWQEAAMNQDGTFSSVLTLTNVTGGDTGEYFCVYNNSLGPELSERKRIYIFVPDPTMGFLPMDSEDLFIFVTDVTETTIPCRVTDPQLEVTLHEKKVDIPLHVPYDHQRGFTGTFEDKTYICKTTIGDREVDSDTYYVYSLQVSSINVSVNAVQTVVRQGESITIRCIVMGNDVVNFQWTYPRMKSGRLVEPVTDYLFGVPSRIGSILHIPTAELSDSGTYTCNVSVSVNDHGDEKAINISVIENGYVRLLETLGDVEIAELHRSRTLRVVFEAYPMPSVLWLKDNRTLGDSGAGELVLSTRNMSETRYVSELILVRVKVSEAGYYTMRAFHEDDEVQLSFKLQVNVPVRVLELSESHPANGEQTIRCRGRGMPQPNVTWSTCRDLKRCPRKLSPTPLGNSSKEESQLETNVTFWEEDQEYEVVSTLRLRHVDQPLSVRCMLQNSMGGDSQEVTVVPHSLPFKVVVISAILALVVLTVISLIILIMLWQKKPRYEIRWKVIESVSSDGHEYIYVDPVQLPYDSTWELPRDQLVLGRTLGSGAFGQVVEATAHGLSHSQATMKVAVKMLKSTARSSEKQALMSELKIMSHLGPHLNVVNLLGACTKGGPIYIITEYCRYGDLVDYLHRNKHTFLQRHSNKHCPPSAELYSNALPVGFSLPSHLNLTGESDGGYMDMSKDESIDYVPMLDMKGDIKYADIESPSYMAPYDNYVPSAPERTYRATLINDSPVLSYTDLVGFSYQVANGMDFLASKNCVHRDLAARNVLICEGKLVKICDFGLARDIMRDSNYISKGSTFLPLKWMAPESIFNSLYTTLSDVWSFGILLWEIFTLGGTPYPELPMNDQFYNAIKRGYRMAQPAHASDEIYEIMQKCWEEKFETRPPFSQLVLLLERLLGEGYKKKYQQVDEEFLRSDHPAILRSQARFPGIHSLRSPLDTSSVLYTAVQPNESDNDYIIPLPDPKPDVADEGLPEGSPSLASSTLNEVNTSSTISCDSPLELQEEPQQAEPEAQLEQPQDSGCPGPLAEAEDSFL

[2] = target: T1, Serine/threonine-protein kinase pim-1 (Homo sapiens, UniProt P11309); test: Inhibition of recombinant PIM1 (unknown origin) expressed in Escherichia coli BL21(DE3) after 1 hr by HTRF assay
Target sequence in this assay (P11309 whole entry): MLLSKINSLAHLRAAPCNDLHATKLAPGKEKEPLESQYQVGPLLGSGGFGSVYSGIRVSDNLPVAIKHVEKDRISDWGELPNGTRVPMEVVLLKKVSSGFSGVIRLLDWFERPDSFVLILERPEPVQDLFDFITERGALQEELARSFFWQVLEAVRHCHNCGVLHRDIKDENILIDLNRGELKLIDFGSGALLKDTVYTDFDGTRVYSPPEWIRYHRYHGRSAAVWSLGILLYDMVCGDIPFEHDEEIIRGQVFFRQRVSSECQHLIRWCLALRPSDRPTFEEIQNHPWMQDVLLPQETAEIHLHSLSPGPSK

[3] = target: T1, Serine/threonine-protein kinase pim-1; test: Inhibition of PIM1 (unknown origin) using [gamma33P]ATP assessed as residual activity at 1 uM after 120 mins by radiometric assayATP
Target sequence in this assay (P11309 whole entry, looked up): as the sequence (P11309 whole entry) above

[4] = target: T1, Serine/threonine-protein kinase pim-1; test: Inhibition of PIM1-mediated BAD phosphorylation in human K562 cells at 0.1 to 30 uM after 12 hrs by Western blotting analysis; assay type: cell-based
Target sequence in this assay (P11309 whole entry, looked up): as the sequence (P11309 whole entry) above

[5] = target: RAC-alpha serine/threonine-protein kinase (Homo sapiens) (UniProt P31749); test: Inhibition of AKT1 (unknown origin) using [gamma33P]ATP assessed as residual activity at 1 uM after 120 mins by radiometric assay
Chain of RAC-alpha serine/threonine-protein kinase (Homo sapiens) (P31749 whole entry): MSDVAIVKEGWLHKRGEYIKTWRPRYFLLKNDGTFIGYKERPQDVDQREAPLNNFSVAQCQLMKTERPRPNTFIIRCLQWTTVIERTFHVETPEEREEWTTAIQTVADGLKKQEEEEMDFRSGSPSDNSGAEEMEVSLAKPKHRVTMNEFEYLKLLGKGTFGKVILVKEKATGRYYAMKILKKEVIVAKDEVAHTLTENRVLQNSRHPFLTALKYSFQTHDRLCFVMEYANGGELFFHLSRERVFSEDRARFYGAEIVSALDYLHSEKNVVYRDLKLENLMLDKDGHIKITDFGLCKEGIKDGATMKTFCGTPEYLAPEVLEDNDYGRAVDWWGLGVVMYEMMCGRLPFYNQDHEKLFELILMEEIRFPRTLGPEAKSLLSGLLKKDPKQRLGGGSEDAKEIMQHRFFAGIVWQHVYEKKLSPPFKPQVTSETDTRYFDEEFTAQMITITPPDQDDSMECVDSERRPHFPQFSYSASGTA

MV4-11 [6] = test: Effect on total BAD level in human MV411 cells at 10 to 100 nM after 12 hrs by Western blotting analysis; assay type: functional, cell-based
[7] = target: T1, Serine/threonine-protein kinase pim-1; test: Inhibition of PIM1-mediated BAD phosphorylation in human MV411 cells after 12 hrs by Western blotting analysis; assay type: cell-based; conditions: MV4-11
Target sequence in this assay (P11309 whole entry, looked up): as the sequence (P11309 whole entry) above

[8] = target: Serine/threonine-protein kinase Chk2 (Homo sapiens) (UniProt O96017); test: Inhibition of CHK2 (unknown origin) using [gamma33P]ATP assessed as residual activity at 1 uM after 120 mins by radiometric assay
Chain of Serine/threonine-protein kinase Chk2 (Homo sapiens) (O96017 whole entry): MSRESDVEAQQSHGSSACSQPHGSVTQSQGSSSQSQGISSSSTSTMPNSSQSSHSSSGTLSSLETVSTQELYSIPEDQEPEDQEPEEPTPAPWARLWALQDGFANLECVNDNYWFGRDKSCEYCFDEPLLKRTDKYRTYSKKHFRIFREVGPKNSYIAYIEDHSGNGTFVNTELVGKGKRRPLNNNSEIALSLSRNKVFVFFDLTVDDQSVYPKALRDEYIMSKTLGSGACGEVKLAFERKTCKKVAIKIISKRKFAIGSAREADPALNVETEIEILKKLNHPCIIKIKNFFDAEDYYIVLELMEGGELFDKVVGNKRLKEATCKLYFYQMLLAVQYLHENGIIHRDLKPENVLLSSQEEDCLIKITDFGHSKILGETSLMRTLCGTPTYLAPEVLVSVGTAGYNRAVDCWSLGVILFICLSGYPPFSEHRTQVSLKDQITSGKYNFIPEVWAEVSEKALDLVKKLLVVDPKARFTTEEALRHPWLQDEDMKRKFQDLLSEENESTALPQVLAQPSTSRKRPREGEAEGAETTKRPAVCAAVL

[9] = target: T1, Serine/threonine-protein kinase pim-1; test: Inhibition of PIM1-mediated BAD phosphorylation in human MV411 cells at 100 nM after 12 hrs by Western blotting analysis; assay type: cell-based; conditions: MV4-11
Target sequence in this assay (P11309 whole entry, looked up): as the sequence (P11309 whole entry) above

MV4-11 [10] = test: Effect on total PIM1 level in human MV411 cells at 10 to 100 nM after 12 hrs by Western blotting analysis; assay type: functional, cell-based
[11] = target: T2, Tyrosine-protein kinase BTK (Homo sapiens, UniProt Q06187); test: Inhibition of BTK (unknown origin) using [gamma33P]ATP assessed as residual activity at 1 uM after 120 mins by radiometric assay
T2 sequence (Q06187 whole entry): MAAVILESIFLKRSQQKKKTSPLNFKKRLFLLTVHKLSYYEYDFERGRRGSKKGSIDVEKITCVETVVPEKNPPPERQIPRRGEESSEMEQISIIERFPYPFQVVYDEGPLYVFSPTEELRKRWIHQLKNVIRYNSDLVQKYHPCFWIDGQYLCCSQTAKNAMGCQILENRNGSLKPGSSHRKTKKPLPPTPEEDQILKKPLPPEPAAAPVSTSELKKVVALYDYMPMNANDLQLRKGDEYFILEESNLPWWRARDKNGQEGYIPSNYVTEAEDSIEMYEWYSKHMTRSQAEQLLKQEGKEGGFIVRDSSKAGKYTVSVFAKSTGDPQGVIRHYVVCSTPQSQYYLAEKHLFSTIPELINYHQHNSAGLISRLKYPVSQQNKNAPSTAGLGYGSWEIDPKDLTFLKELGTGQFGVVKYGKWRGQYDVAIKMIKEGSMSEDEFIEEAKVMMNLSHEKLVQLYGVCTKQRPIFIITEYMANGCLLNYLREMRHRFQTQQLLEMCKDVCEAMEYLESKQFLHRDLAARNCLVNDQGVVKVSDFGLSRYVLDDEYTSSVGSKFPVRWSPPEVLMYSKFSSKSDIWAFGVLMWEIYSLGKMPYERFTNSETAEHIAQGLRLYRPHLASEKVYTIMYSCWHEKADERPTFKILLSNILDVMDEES

[12] = target: Casein kinase II subunit alpha' (Homo sapiens) (UniProt P19784); test: Inhibition of CK2alpha2 (unknown origin) using [gamma33P]ATP assessed as residual activity at 1 uM after 120 mins by radiometric assay
Chain of Casein kinase II subunit alpha' (Homo sapiens) (P19784 whole entry, looked up): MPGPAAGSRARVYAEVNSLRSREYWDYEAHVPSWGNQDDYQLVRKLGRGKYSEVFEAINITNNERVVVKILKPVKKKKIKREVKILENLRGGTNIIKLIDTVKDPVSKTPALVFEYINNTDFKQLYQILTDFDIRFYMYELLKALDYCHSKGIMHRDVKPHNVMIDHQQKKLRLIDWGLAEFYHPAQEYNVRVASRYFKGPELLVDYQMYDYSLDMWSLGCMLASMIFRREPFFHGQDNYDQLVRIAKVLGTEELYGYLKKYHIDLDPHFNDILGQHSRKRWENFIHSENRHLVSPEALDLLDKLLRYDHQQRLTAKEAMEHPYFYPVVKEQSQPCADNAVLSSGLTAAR

[13] = target: T1, Serine/threonine-protein kinase pim-1; test: Inhibition of PIM1-mediated BAD phosphorylation in human K562 cells after 12 hrs by Western blotting analysis; assay type: cell-based
Target sequence in this assay (P11309 whole entry, looked up): as the sequence (P11309 whole entry) above

Casein kinase 2 = Casein kinase 2 (Homo sapiens, UniProt P67870+P68400+P19784+Q8NEV1); test: Inhibition of human recombinant casein kinase 2 using [gamma-32P] ATP; assay type: protein assay
[14] = target: T2, Tyrosine-protein kinase BTK; test: Inhibition of BTK (unknown origin)
[15] = Inhibition of Mycobacterium tuberculosis protein kinase B

## CNC(=O)c1cc(Oc2ccc(NC(=O)Nc3ccc(Cl)c(C(F)(F)F)c3)cc2)ccn1 [SORAFENIB]
[1]
  IC50: < 100 nM

## O=C1c2c(O)ccc(O)c2C(=O)c2c(NCCNCCO)ccc(NCCNCCO)c21 [MITOXANTRONE HYDROCHLORIDE]
[2]
  IC50: 50.9 nM

## O=C1c2c(O)ccc(O)c2C(=O)c2c(NCCNCCO)ccc(NCCNCCO)c21
[3]
  Activity: 0.86%
[4]
  inhibition: Active
[5]
  Activity: 109%
MV4-11 [6]
  Activity: inactive
[7]
  inhibition: Dose-dependent effect
[8]
  Activity: 59.7%
[9]
  inhibition: Active
MV4-11 [10]
  Activity: inactive
[11]
  Activity: 45.9%
[12]
  Activity: 81.8%
[13]
  inhibition: Dose-dependent effect

## O=C1c2c(O)ccc(O)c2C(=O)c2c(NCCNCCO)ccc(NCCNCCO)c21 [MITOXANTRONE]
Casein kinase 2
  IC50: 660 nM
[14]
  IC50: 1000 nM
[15]
  IC50: 800 nM
